Species on record: Rattus norvegicus
Assay: DrugMatrix - Regimen: Daily Repeat
Assay type: toxicity, organism-based, Sprague-Dawley
Design: regimen Daily Repeat, gender Male, age 6-8 weeks
Conditions: in vivo, po, route oral GAVAGE, […]; for BASOPHIL / EOSINOPHIL / ERYTHROCYTE COUNT / HEMATOCRIT / HEMOGLOBIN / LEUKOCYTE COUNT / LYMPHOCYTE / MEAN CORPUSCULAR HEMOGLOBIN / MEAN CORPUSCULAR HEMOGLOBIN CONCENTRATION / MEAN CORPUSCULAR VOLUME / MONOCYTE / NEUTROPHIL / PLATELET COUNT: tissue Blood; for ALANINE AMINOTRANSFERASE / ALBUMIN / ALKALINE PHOSPHATASE / ASPARTATE AMINOTRANSFERASE / BLOOD UREA NITROGEN / CARBON DIOXIDE / CHLORIDE / CHOLESTEROL / CREATINE PHOSPHOKINASE / CREATININE / GLUCOSE / LACTATE DEHYDROGENASE / LIPASE / PHOSPHORUS / POTASSIUM / SODIUM / TOTAL BILIRUBIN / TOTAL PROTEIN / URIC ACID: tissue Plasma
[1] = 100 mg/kg, 72 h, dose level Low, time 3 day
[2] = 100 mg/kg, 120 h, dose level Low, time 5 day
[3] = 1200 mg/kg, 72 h, dose level High, time 3 day
[4] = 1200 mg/kg, 120 h, dose level High, time 5 day

Cc1c(C)c2c(c(C)c1O)CCC(C)(COc1ccc(CC3SC(=O)NC3=O)cc1)O2 (stereo not drawn) [TROGLITAZONE]
BASOPHIL [1]: 0% | EOSINOPHIL [1]: 1% | ERYTHROCYTE COUNT [1]: 6.97 x10E6/uL | HEMATOCRIT [1]: 42.83% | HEMOGLOBIN [1]: 14.33 G/DL | LEUKOCYTE COUNT [1]: 7.7 x10E3/uL | LYMPHOCYTE [1]: 77.67% | MEAN CORPUSCULAR HEMOGLOBIN [1]: 20.57 pg | MEAN CORPUSCULAR HEMOGLOBIN CONCENTRATION [1]: 33.5 G/DL | MEAN CORPUSCULAR VOLUME [1]: 61.4 fL | MONOCYTE [1]: 3% | NEUTROPHIL [1]: 18.33% | PLATELET COUNT [1]: 1143 x10E3/uL | ALANINE AMINOTRANSFERASE [1]: 57.67 u/L | ALBUMIN [1]: 4.33 G/DL | ALKALINE PHOSPHATASE [1]: 396.67 u/L | ASPARTATE AMINOTRANSFERASE [1]: 112.67 u/L | BLOOD UREA NITROGEN [1]: 14.67 mg/dL | CARBON DIOXIDE [1]: 24.67 mmol/L | CHLORIDE [1]: 103.33 MEQ/L | CHOLESTEROL [1]: 74.67 mg/dL | CREATINE PHOSPHOKINASE [1]: 585.67 u/L | CREATININE [1]: 0.3 mg/dL | GLUCOSE [1]: 141 mg/dL | LACTATE DEHYDROGENASE [1]: 938.33 u/L | LIPASE [1]: 10 u/L | PHOSPHORUS [1]: 8.83 mg/dL | POTASSIUM [1]: 5.6 MEQ/L | SODIUM [1]: 144.33 MEQ/L | TOTAL BILIRUBIN [1]: 0.1 mg/dL | TOTAL PROTEIN [1]: 5.83 G/DL | URIC ACID [1]: 1.2 mg/dL | BASOPHIL [2]: 0.33% | EOSINOPHIL [2]: 0.67% | ERYTHROCYTE COUNT [2]: 7.13 x10E6/uL | HEMATOCRIT [2]: 43.8% | HEMOGLOBIN [2]: 14.4 G/DL | LEUKOCYTE COUNT [2]: 13.53 x10E3/uL | LYMPHOCYTE [2]: 82.33% | MEAN CORPUSCULAR HEMOGLOBIN [2]: 20.2 pg | MEAN CORPUSCULAR HEMOGLOBIN CONCENTRATION [2]: 32.87 G/DL | MEAN CORPUSCULAR VOLUME [2]: 61.5 fL | MONOCYTE [2]: 1.67% | NEUTROPHIL [2]: 15.67% | PLATELET COUNT [2]: 873.33 x10E3/uL | ALANINE AMINOTRANSFERASE [2]: 66.67 u/L | ALBUMIN [2]: 4.27 G/DL | ALKALINE PHOSPHATASE [2]: 446.67 u/L | ASPARTATE AMINOTRANSFERASE [2]: 84.33 u/L | BLOOD UREA NITROGEN [2]: 15 mg/dL | CARBON DIOXIDE [2]: 23.67 mmol/L | CHLORIDE [2]: 99.67 MEQ/L | CHOLESTEROL [2]: 63.67 mg/dL | CREATINE PHOSPHOKINASE [2]: 419.67 u/L | CREATININE [2]: 0.3 mg/dL | GLUCOSE [2]: 149 mg/dL | LACTATE DEHYDROGENASE [2]: 313.33 u/L | LIPASE [2]: 9.33 u/L | PHOSPHORUS [2]: 9.73 mg/dL | POTASSIUM [2]: 5.57 MEQ/L | SODIUM [2]: 139.67 MEQ/L | TOTAL BILIRUBIN [2]: 0.0667 mg/dL | TOTAL PROTEIN [2]: 5.8 G/DL | URIC ACID [2]: 0.87 mg/dL | BASOPHIL [3]: 0% | EOSINOPHIL [3]: 1% | ERYTHROCYTE COUNT [3]: 7.21 x10E6/uL | HEMATOCRIT [3]: 43.6% | HEMOGLOBIN [3]: 14.63 G/DL | LEUKOCYTE COUNT [3]: 6.47 x10E3/uL | LYMPHOCYTE [3]: 79.33% | MEAN CORPUSCULAR HEMOGLOBIN [3]: 20.33 pg | MEAN CORPUSCULAR HEMOGLOBIN CONCENTRATION [3]: 33.6 G/DL | MEAN CORPUSCULAR VOLUME [3]: 60.5 fL | MONOCYTE [3]: 2.67% | NEUTROPHIL [3]: 16.67% | PLATELET COUNT [3]: 1107 x10E3/uL | ALANINE AMINOTRANSFERASE [3]: 85.33 u/L | ALBUMIN [3]: 4.53 G/DL | ALKALINE PHOSPHATASE [3]: 481.33 u/L | ASPARTATE AMINOTRANSFERASE [3]: 92.33 u/L | BLOOD UREA NITROGEN [3]: 14.67 mg/dL | CARBON DIOXIDE [3]: 23 mmol/L | CHLORIDE [3]: 104 MEQ/L | CHOLESTEROL [3]: 65.33 mg/dL | CREATINE PHOSPHOKINASE [3]: 471 u/L | CREATININE [3]: 0.3 mg/dL | GLUCOSE [3]: 140.33 mg/dL | LACTATE DEHYDROGENASE [3]: 332.33 u/L | LIPASE [3]: 9.33 u/L | PHOSPHORUS [3]: 8.43 mg/dL | POTASSIUM [3]: 5.33 MEQ/L | SODIUM [3]: 146 MEQ/L | TOTAL BILIRUBIN [3]: 0.1 mg/dL | TOTAL PROTEIN [3]: 6 G/DL | URIC ACID [3]: 0.97 mg/dL | BASOPHIL [4]: 0% | EOSINOPHIL [4]: 1% | ERYTHROCYTE COUNT [4]: 6.94 x10E6/uL | HEMATOCRIT [4]: 42.1% | HEMOGLOBIN [4]: 13.63 G/DL | LEUKOCYTE COUNT [4]: 9.2 x10E3/uL | LYMPHOCYTE [4]: 81% | MEAN CORPUSCULAR HEMOGLOBIN [4]: 19.63 pg | MEAN CORPUSCULAR HEMOGLOBIN CONCENTRATION [4]: 32.4 G/DL | MEAN CORPUSCULAR VOLUME [4]: 60.63 fL | MONOCYTE [4]: 2.33% | NEUTROPHIL [4]: 16% | PLATELET COUNT [4]: 801.33 x10E3/uL | ALANINE AMINOTRANSFERASE [4]: 58 u/L | ALBUMIN [4]: 4.3 G/DL | ALKALINE PHOSPHATASE [4]: 406.67 u/L | ASPARTATE AMINOTRANSFERASE [4]: 77.33 u/L | BLOOD UREA NITROGEN [4]: 16 mg/dL | CARBON DIOXIDE [4]: 25 mmol/L | CHLORIDE [4]: 99.33 MEQ/L | CHOLESTEROL [4]: 64.33 mg/dL | CREATINE PHOSPHOKINASE [4]: 451.67 u/L | CREATININE [4]: 0.3 mg/dL | GLUCOSE [4]: 149 mg/dL | LACTATE DEHYDROGENASE [4]: 118.67 u/L | LIPASE [4]: 8.67 u/L | PHOSPHORUS [4]: 9.07 mg/dL | POTASSIUM [4]: 5.67 MEQ/L | SODIUM [4]: 138 MEQ/L | TOTAL BILIRUBIN [4]: 0.1 mg/dL | TOTAL PROTEIN [4]: 5.77 G/DL | URIC ACID [4]: 1.1 mg/dL

Source: ChEMBL document CHEMBL3885881, “DrugMatrix”
